Results on 45 molecules are retold here after US7902187B2, “6-substituted 2-(benzimidazolyl)purine and purinone derivatives for immunosuppression” (Wyeth LLC, priority 2006, dated 2011).

The term IC50 denotes the point on the concentration scale where inhibition reaches its midpoint.

In the first assay the target is T1, Jak3 (Homo sapiens, UniProt P52333).
T1 construct: A fragment encoding the catalytic domain of Jak3 (508aa to 1124aa) was ligated with GST at 5′ end; made in house; host or cells: Sf9 insect cells (baculovirus, pFastBac 1)
T1 sequence (P52333 508-1124): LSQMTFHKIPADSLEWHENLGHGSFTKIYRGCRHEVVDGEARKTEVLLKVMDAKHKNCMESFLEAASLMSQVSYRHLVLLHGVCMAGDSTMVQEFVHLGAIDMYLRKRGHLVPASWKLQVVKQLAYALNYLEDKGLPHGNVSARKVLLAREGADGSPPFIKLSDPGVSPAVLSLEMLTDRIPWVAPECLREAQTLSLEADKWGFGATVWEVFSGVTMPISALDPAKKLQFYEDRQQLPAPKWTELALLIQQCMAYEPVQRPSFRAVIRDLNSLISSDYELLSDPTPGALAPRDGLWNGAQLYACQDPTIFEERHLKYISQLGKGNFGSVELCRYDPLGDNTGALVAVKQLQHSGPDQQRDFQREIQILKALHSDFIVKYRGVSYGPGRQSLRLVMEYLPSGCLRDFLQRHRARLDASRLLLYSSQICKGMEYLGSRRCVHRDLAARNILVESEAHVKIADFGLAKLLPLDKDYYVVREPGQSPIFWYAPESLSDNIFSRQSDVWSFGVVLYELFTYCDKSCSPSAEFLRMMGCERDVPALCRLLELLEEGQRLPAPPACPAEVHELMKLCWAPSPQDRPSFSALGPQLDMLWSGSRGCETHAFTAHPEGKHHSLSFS
Briefly: Jak3 Kinase Assay (HTRF). The class given is biochemical. The note with it: GST-Jak3 catalytic domain, 1 μM ATP, 60-min incubation; read-out: Jak3 Kinase, IC50 representation. Here is the method: Human Jak3 cDNA was amplified by PCR. A fragment encoding the catalytic domain of Jak3 (508aa to 1124aa) was ligated with GST at 5′ end. This fused GST-Jak3 DNA fragment was cloned into the EcoRI site of the donor plasmid pFastBac 1 (Life Technologies #10359-016). The transformation, transposition, and transfection of insect cells (Sf9) were performed according to the manufacture's instructions. The cell lysate containing recombinant GST-Jak3 was used in the kinase assay. Anti-GST antibody (10 μg/ml, Sigma #G1417) was coated onto a 384-well plate at 4° C. overnight. Cell lysate containing GST-Jak3 (1:100 dilution) was added to the anti-GST coated plates, and GST-Jak3 was captured by immobilized anti-GST antibody. Testing compounds and substrate mix (50 mM HEPES, pH 7, 0.5 mM Na3VO4, 25 mM MgCl2, 1 mM DTT, 0.005% BSA, 1 μM ATP, and 4.5 μg/ml biotinyl poly-Glu,Ala,Tyr) were added to the plate to initiate the reaction. After a 60-min incubation, the reaction was stopped by 4 mM EDTA, and phosphorylation of biotinyl poly-Glu,Ala,Tyr was detected using 17 μg/ml Cy5-streptavidin (Amersham, #PA92005) and 2.7 μg/ml Europium-conjugated anti-phosphotyrosine antibody (PerkinElmer #AD0069) using homogeneous time-resolved fluorescence (HTRF) technology.
On the technique in general: Time-resolved FRET reads energy transfer from a long-lived donor to a nearby acceptor.
With `N#Cc1ccc2ncn(-c3nc(N4CC(O)C4)c4[nH]c(=O)n(C5CCOCC5)c4n3)c2c1`, the IC50 is less than 100 nM. On to `Cn1c(=O)n([C@H]2CC[C@H](O)CC2)c2nc(-n3cnc4ccc(C#N)cc43)nc(N3CC(F)(F)C3)c21`, for which the IC50 is less than 100 nM. `NC(=O)C1CCN(c2nc(-n3cnc4ccc(Cl)cc43)nc3c2[nH]c(=O)n3C2CCOCC2)CC1`: the IC50 was less than 100 nM.

On to `O=c1[nH]c2c(N3CC(O)C3)nc(-n3cnc4ccc(F)cc43)nc2n1[C@@H]1CCOc2c(F)cccc21`, for which the IC50 is less than 100 nM. As for `Cn1c(=O)n([C@H]2CC[C@H](O)CC2)c2nc(-n3cnc4ccc(Cl)cc43)nc(N3CC[C@H](F)C3)c21`, the half-inhibitory concentration (IC50) is less than 100 nM. Turning to `N#Cc1ccc2ncn(-c3nc(N4CCOCC4)c4[nH]c(=O)n(C5CCOCC5)c4n3)c2c1`, the 50% inhibitory concentration (IC50) was less than 100 nM. On to `O=c1[nH]c2c(N3CC(O)C3)nc(-n3cnc4ccc(Cl)cc43)nc2n1C1CCOCC1`, for which the IC50 was less than 100 nM. On to `O=c1[nH]c2c(N3CC(F)(F)C3)nc(-n3cnc4ccc(F)cc43)nc2n1[C@H]1CC[C@H](O)CC1`, for which the IC50 is less than 100 nM. For the molecule `N#Cc1ccc2ncn(-c3nc(NCCCN)c4[nH]c(=O)n(C5CCOCC5)c4n3)c2c1`, the IC50 is less than 100 nM. `O=c1[nH]c2c(N3CC[C@H](F)C3)nc(-n3cnc4ccc(F)cc43)nc2n1C1CCOCC1`: the IC50 was less than 100 nM. Regarding `Cn1c(=O)n([C@H]2CC[C@H](O)CC2)c2nc(-n3cnc4ccc(F)cc43)nc(N3CCC3)c21`, the IC50 was less than 100 nM.

Consider `Cn1c(=O)n([C@H]2CC[C@H](O)CC2)c2nc(-n3cnc4ccc(Cl)cc43)nc(N3CC[C@@H](F)C3)c21`, for which the IC50 was less than 100 nM.

As for `N#Cc1ccc2ncn(-c3nc(N4CCCC(O)CC4)c4[nH]c(=O)n(C5CCOCC5)c4n3)c2c1` (centres unmarked), the IC50 is less than 100 nM. On to `Cn1c(=O)n([C@H]2CC[C@H](O)CC2)c2nc(-n3cnc4ccc(F)cc43)nc(N3CC[C@@H](F)C3)c21`, for which the half-inhibitory concentration (IC50) was less than 100 nM. Turning to `NC(=O)C1CCN(c2nc(-n3cnc4ccc(F)cc43)nc3c2[nH]c(=O)n3C2CCOCC2)CC1`, the 50% inhibitory concentration (IC50) is less than 100 nM.

Turning to `CN1CCCN(c2nc(-n3cnc4ccc(Cl)cc43)nc3c2[nH]c(=O)n3C2CCOCC2)CC1`, the half-inhibitory concentration (IC50) is less than 100 nM. Same read-out and setting: with `N#Cc1ccc2ncn(-c3nc(N4CCS(=O)(=O)CC4)c4[nH]c(=O)n(C5CCOCC5)c4n3)c2c1` the figure was less than 100 nM; with `Cn1c(=O)n([C@H]2CC[C@H](O)CC2)c2nc(-n3cnc4ccc(F)cc43)nc(N3CCCC3)c21`, less than 100 nM; with `Cn1c(=O)n([C@H]2CC[C@H](O)CC2)c2nc(-n3cnc4ccc(Cl)cc43)nc(N3CC(F)(F)C3)c21`, less than 100 nM.

On to `CC(C)(C)OC(=O)N1CC(Nc2nc(-n3cnc4ccc(Cl)cc43)nc3c2[nH]c(=O)n3C2CCOCC2)C1`, for which the IC50 was less than 100 nM. For `O=c1[nH]c2c(NCCCO)nc(-n3cnc4ccc(Cl)cc43)nc2n1C1CCOCC1`, the 50% inhibitory concentration (IC50) is less than 100 nM. In the case of `O=c1[nH]c2c(N3CC(O)C3)nc(-n3cnc4ccc(F)cc43)nc2n1C1CCOCC1`, the IC50 was less than 100 nM. For the molecule `CN1CCC(Nc2nc(-n3cnc4ccc(C#N)cc43)nc3c2[nH]c(=O)n3C2CCOCC2)CC1`, the 50% inhibitory concentration (IC50) is less than 100 nM. The same measure, in the same setting: the same measure for `Cn1c(=O)n([C@H]2CC[C@H](O)CC2)c2nc(-n3cnc4ccc(Cl)cc43)nc(N3CCC(F)CC3)c21`: less than 100 nM; for `O=c1[nH]c2c(N3CCC(O)C3)nc(-n3cnc4ccc(F)cc43)nc2n1C1CCOCC1` (centres unmarked): less than 100 nM. In the case of `O=c1[nH]c2c(N3CCCC3)nc(-n3cnc4ccc(F)cc43)nc2n1C1CCOCC1`, the IC50 is less than 100 nM.

Turning to `COCCNc1nc(-n2cnc3ccc(Cl)cc32)nc2c1[nH]c(=O)n2C1CCOCC1`, the half-maximal inhibitory concentration (IC50) is less than 100 nM.

On to `Cn1c(=O)n([C@H]2CC[C@H](O)CC2)c2nc(-n3cnc4ccc(F)cc43)nc(N3CC(F)(F)C3)c21`, for which the concentration for half-maximal inhibition (IC50) is less than 100 nM. `O=c1[nH]c2c(N3CC[C@@H](F)C3)nc(-n3cnc4ccc(F)cc43)nc2n1C1CCOCC1`: the IC50 is less than 100 nM. As for `O=c1[nH]c2c(N3CC(F)(F)C3)nc(-n3cnc4ccc(Cl)cc43)nc2n1C1CCOCC1`, the concentration for half-maximal inhibition (IC50) is less than 100 nM. `CC(c1cccnc1)n1c(=O)[nH]c2c(N3CC(F)(F)C3)nc(-n3cnc4ccc(C#N)cc43)nc21` (centres unmarked): the IC50 was less than 100 nM.

`N#Cc1ccc2ncn(-c3nc(-c4ccncc4)c4[nH]c(=O)n(C5CCOCC5)c4n3)c2c1`: the IC50 is less than 100 nM. Consider `CC(C)(C)OC(=O)NCCCNc1nc(-n2cnc3ccc(C#N)cc32)nc2c1[nH]c(=O)n2C1CCOCC1`, for which the 50% inhibitory concentration (IC50) was less than 100 nM.

Regarding `O=c1[nH]c2c(N3CCC(F)(F)C3)nc(-n3cnc4ccc(F)cc43)nc2n1C1CCOCC1`, the IC50 is less than 100 nM. For `O=c1[nH]c2c(N3CC(F)(F)C3)nc(-n3cnc4ccc(F)cc43)nc2n1C1CCOCC1`, the IC50 was less than 100 nM. Same read-out and setting: the same measure for `O=c1[nH]c2c(NC3CNC3)nc(-n3cnc4ccc(F)cc43)nc2n1C1CCOCC1`: less than 100 nM; for `O=c1[nH]c2c(N3CCC3)nc(-n3cnc4ccc(Cl)cc43)nc2n1C1CCOCC1`: less than 100 nM.

Take `O=c1[nH]c2c(NCC3CNC3)nc(-n3cnc4ccc(F)cc43)nc2n1C1CCOCC1`: the half-inhibitory concentration (IC50) is less than 100 nM. Take `Cn1cc(-c2nc(-n3cnc4ccc(F)cc43)nc3c2[nH]c(=O)n3C2CCOCC2)cn1`: the half-inhibitory concentration (IC50) was less than 100 nM. Take `O=c1[nH]c2c(N3CCC3)nc(-n3cnc4ccc(F)cc43)nc2n1C1CCOCC1`: the IC50 is less than 100 nM.

As for `CCC(C)c1nc(-n2cnc3ccc(F)cc32)nc2c1[nH]c(=O)n2[C@@H]1CCOc2c(F)cccc21` (some centres unmarked), the IC50 is greater than 1000 nM. On to `O=c1[nH]c2c(-c3ccccc3Cl)nc(-n3cnc4ccc(F)cc43)nc2n1C1CCOCC1`, for which the IC50 was greater than 1000 nM. Turning to `C[C@@H](Nc1nc(-n2cnc3ccc(F)cc32)nc2c1[nH]c(=O)n2C1CCOCC1)c1ccccc1`, the IC50 was greater than 1000 nM.

Another assay concerns the target T2, Jak3 (Homo sapiens, UniProt P52333).
T2 construct: host or cells: leukemia cells (not specified)
T2 sequence (P52333 1-1124): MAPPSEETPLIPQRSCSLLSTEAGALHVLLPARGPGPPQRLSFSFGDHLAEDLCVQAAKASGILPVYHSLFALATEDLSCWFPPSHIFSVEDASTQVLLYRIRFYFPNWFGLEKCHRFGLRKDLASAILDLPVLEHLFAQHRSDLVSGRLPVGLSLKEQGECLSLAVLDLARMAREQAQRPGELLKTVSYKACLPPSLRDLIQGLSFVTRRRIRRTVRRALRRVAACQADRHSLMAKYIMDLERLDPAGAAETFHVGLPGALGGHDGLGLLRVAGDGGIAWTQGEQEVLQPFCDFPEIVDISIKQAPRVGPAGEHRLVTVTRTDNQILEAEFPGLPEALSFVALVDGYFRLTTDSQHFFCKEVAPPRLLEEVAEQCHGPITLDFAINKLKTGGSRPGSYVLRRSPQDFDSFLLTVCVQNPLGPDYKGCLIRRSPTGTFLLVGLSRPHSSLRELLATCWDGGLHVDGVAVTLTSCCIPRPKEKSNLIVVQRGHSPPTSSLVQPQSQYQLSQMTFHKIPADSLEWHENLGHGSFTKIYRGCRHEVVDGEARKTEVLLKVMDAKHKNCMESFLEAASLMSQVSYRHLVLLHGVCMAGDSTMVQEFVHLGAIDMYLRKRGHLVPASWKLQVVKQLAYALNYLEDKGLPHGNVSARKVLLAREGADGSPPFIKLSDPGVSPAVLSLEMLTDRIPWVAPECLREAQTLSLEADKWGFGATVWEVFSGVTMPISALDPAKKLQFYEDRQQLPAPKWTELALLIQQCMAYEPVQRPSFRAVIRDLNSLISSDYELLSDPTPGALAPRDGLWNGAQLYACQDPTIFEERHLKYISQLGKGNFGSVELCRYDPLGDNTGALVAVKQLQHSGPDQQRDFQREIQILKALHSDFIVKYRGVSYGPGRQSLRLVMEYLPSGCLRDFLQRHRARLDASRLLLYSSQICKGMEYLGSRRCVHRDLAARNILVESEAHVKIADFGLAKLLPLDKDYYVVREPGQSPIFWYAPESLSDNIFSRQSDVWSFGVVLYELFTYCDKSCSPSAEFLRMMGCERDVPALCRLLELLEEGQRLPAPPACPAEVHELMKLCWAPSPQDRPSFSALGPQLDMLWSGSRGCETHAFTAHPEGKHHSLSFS
Experiment: not given
The note with it: leukemia cells; cited from earlier work.
In the case of `COc1cc2ncnc(Nc3ccc(O)cc3)c2cc1OC` [JANEX-1], the “selectivity of Jak3 inhibition” value is recorded as “selective inhibitors of Jak3”. For the molecule `COc1cc2ncnc(Nc3ccc(O)c(Br)c3)c2cc1OC` [WHI-P154], the “selectivity of Jak3 inhibition” value is recorded as “selective inhibitors of Jak3”.

Test system in a further assay: not given
Experiment: not given
The note with it: NOD mouse; cited from earlier work.
On to `COc1cc2ncnc(Nc3ccc(O)cc3)c2cc1OC` [JANEX-1], for which the “spontaneous autoimmune diabetes development” value was “prevent spontaneous autoimmune diabetes development”.

Test system in another assay: not given
Experiment: not given
The note with it: in vivo; cited from earlier work.
In the case of `COc1cc2ncnc(Nc3ccc(O)cc3)c2cc1OC` [JANEX-1], the “severity of GVHD” value was “attenuate the severity of GVHD”.
